Experimental data published in patent US12226382B2, “Methods for treating microglial dysfunction” (Washington University, priority 2017, dated 2025).

Tests used:
[1] = system: Trem-2 deficient macrophages; experiment: Supplementation of Trem2-deficient macrophages with creatine analogs; type: cell-based, mouse; details: supplemented media
Trem2−/− BMDMs [2] = experiment: Autophagic flux in BMDM with lysosomal inhibitor (LC3 immunoblot); type: cell-based, mouse; details: bafilomycin for 5 hours prior to harvest
Protocol: (§1) To prepare bone marrow-derived macrophages, femurs and tibias were removed and flushed with PBS. Cells were counted and plated at 2.5×10^6 cells/100 mm petri dish in RPMI supplemented with Glutamax, penicillin/streptomycin, non-essential amino acids, pyruvate, and 10% heat inactivated fetal bovine serum (complete RPMI) and 10% L-cell conditioned medium (LCCM). Cells were cultured for 4-5 days before use. Microglia were prepared as previously described (Wang et al., 2015). Briefly, brains were dissociated by using a Neural Tissue Dissociation Kit (T) (Miltenyi Biotech Cat. Number 130-093-231). Cell suspensions were labeled with anti-mouse CD45 magnetic beads and isolated on LS columns (Miltenyi Biotic). Cells were plated onto poly-L-lysine coated polystyrene plates in complete RPMI supplemented with 20% LCCM and 10 ng/ml human TGF-β. Media was changed on day 3 post plating and cells were used 5-7 days post plating. ATP concentrations were determined with an ATP Determination Kit (Invitrogen).
(§2) BMDM or microglia were lysed in RIPA buffer (50 mM Tris, 150 mM NaCl, 1% SDS, and 1% Triton X100) containing PMSF, leupeptin, activated sodium orthovanidate, apoprotinin, and phosphatase inhibitor cocktail 3 (Sigma Aldrich Cat. Number P0044). Lysates were flash frozen on dry ice and stored at −80° C. until use. Lysates were thawed and 4× LDS running buffer and 10% β-mercaptoethanol were added. […]

creatine kinase = details: in vitro and in vivo; cited from earlier work
[3] = system: microglia from Trem2−/− 5XFAD mice; experiment: Immunoblots of microglia sorted ex vivo from cyclocreatine-treated mice; type: in vivo, mouse; details: microglia isolated ex vivo, cyclocreatine vs untreated
Source text: (§3) The generation of Trem2^−/− and Trem2^−/− SXFAD mice has been described previously (Oakley et al., 2006; Turnbull et al., 2006; Wang et al., 2015). All mice were on a C57BL/6 background. Age and sex matched mice were used for all experiments; experimental cohorts of mice were cohoused from birth to control for the microbiota. For in vivo cyclocreatine treatment 10-week old mice were put on cyclocreatine-containing water, treatment was continued until mice reached 8 months of age (Santa Cruz SC-217964 S). Desired intake of cyclocreatine was approximately 0.28 mg/g of body weight/day, which is approximately the same as the standard creatine dose used in humans of 285 mg/kg of body weight/day (Kurosawa et al., 2012). Cyclocreatine was administered in drinking water at a final concentration of 2.33 mg/ml. The Institutional Animal Care and Use Committee at Washington University in St. Louis approved all protocols used in this study.
Microglia were isolated from the indicated animals as previously described (Wang et al., 2015). CD45^+, CD11 b^+, F4/80^+ (Biolegend Cat. Number 103134, eBioscience Cat. Numbers 11-0112 and 17-4801) cells in the brain were fluorescence-activated cell-sorted (FACS) directly into RLT-plus lysis buffer for microarray or 2% FBS in PBS for TEM or immunoblot lysates. For microarray RNA extraction was performed using a RNeasy micro kit (QIAGEN). […]

[4] = cited from earlier work
5XFAD mice = experiment: Dietary cyclocreatine in 5XFAD mice: confocal microscopy of brain; type: in vivo, mouse; details: cyclocreatine-treated 5XFAD mice vs untreated Trem2−/− 5XFAD mice
Source text: as §3
Confocal microscopy analysis was performed as previously described (Wang et al., 2015). Briefly, mice were anesthetized with ketamine/xylazine and perfused with ice-cold PBS containing 1 U/ml of heparin. Brains were fixed in 4% PFA overnight at 4° C. rinsed in PBS and incubated overnight at 4° C. in 30% sucrose before freezing in a 2:1 mixture of 30% sucrose and optimal cutting temperature compound. […]

Trem2-deficient BMDMs = experiment: Extracellular acidification rate (ECAR), XF96 Extracellular Flux Analyzer; type: cell-based, mouse; details: overnight 0.5% LCCM, 10 mM cyclocreatine
Protocol: as §1, with “(Invitrogen). For real-time analysis of extracellular acidification rates (ECAR) macrophages were analyzed using an XF96 Extracellular Flux Analyzer (Agilent Technologies). Cells were incubated overnight in complete RPMI in the indicated concentration of LCCM with or without cyclocreatine (10 mM). […]” for “(Invitrogen).”

Trem2−/− BMDMs [5] = experiment: Immunoblots for autophagy (LC3, p62) and mTOR signaling in BMDM in limiting CSF1 with rescuing agent; type: cell-based, mouse; details: Trem2-deficient BMDMs, overnight 0.5% LCCM, 5 mM cyclocreatine
Protocol: as §1, §2

Trem2−/− 5XFAD mice = experiment: Dietary cyclocreatine in Trem2−/− 5XFAD mice: TEM and confocal microscopy of brain; type: in vivo, mouse
Source text: as §3
For quantitation of multivesicular/multilamellar structures, 30 cells that were cross-sectioned through the nucleus (indicating cross-section through the middle of cell) were randomly chosen, and images of each cell were taken at 6,000× and 20,000× magnification. The cross-sectional area of each of the multivesicular structures were determined using Image J 1.38 g (National Institutes of Health, USA, customized for AMT images). Data is expressed as the 1) total number of a multivesicular/multilammelar structures per cross-sectional area of cytosol and 2) the total cross-sectional area of multivesicular/multilamellar structures per area of cytosol.
Confocal microscopy analysis was performed as previously described (Wang et al., 2015). Briefly, mice were anesthetized with ketamine/xylazine and perfused with ice-cold PBS containing 1 U/ml of heparin. Brains were fixed in 4% PFA overnight at 4° C. rinsed in PBS and incubated overnight at 4° C. in 30% sucrose before freezing in a 2:1 mixture of 30% sucrose and optimal cutting temperature compound. Serial 40 μm coronal sections were cut on a cryo-sliding microtome. Floating sections from 1.1 mm Bregma to 0.8 mm Bregma for cortical imaging or slides with fixed human sections were stained with lba-1 (Waco Chemicals Cat. Number 019-19741) overnight at 4° C. followed by staining with anti-rabbit IgG DyLight 549 (Vector Laboratories Cat. Number DI-1549) and methoxy-X04 (Tocris Cat. Number 4920) for 1 hour at RT. Finally, sections were stained for with anti-LC3 Alexa 488±anti-cleaved caspase 3 (Cell Signaling Technologies Cat. Number 13082 and 9602). Images were collected using a Nikon Al Rsi+ confocal microscope. Images were then processed with Imaris 7.7 (Bitplane).
Positions of microglia and positions and volumes of plaques within z-stacks were derived from analysis in Imaris, and microglia-plaque association was determined using automated scripts in Matlab. Briefly, each plaque in the z-stack was modeled as an idealized sphere with the same volume and center of mass. Microglia density within 15 μm of the plaque surface was determined by isolating the voxels of the image that fall within 15 μm of the edge of the idealized plaque. The number of microglia contained in these voxels was divided by the total volume of those voxels to obtain density for a single plaque. Densities of all plaques in a z-stack were averaged together, and the resulting values were averaged together for all z-stacks corresponding to a single animal.
To measure total plaque area, brain sections were stained with methoxy X04. Images were collected using a Nikon Eclipse 80i microscope. For quantitative analysis, images were converted to 8-bit greyscale and stitched using the “Stitching” plugin in ImageJ. Cortex (˜1.1 mm Bregma to 0.8 mm Bregma) and hippocampus (˜−1.7 Bregma to −2.4 Bregma) were determined by manual selection. […]

Trem2−/− BMDM = experiment: Viability of BMDM in 0.5% LCCM; type: cell-based, mouse; details: Trem2-deficient BMDMs, 40 hours in 0.5% LCCM
[6] = compared with phosphocreatine; cited from earlier work
Trem2−/− BMDMs [7] = experiment: ER stress in BMDM (LC3 and phospho-Akt immunoblots); type: cell-based, mouse; details: Trem2−/− BMDMs compared with WT BMDMs, 10% LCCM
Protocol: as §1, §2

[8] = Trem2−/− 5XFAD mice, cyclocreatine in drinking water from 10 weeks to 8 months
[9] = Trem2−/− 5XFAD mice, cyclocreatine vs untreated
[10] = cyclocreatine treated Trem2−/− 5XFAD mice

NC(=O)c1ccc[n+]([C@@H]2O[C@H](COP(=O)([O-])O)[C@@H](O)[C@H]2O)c1 [NMN, nicotinamide mononucleotide]
autophagy [1]: prevent | cell death [1]: prevent | metabolic activity / metabolic capacity [1]: rescue

CO/C1=C\C(C)=C\[C@@H](C)[C@@H](O)[C@@H](C)C/C(C)=C/C=C/[C@H](OC)[C@@H]([C@@H](C)[C@@H](O)[C@H](C)[C@@]2(O)C[C@@H](O)[C@H](C)[C@@H](C(C)C)O2)OC1=O [bafilomycin, Bafilomycin A1]
LC3II (Trem2−/− BMDMs [2]): greatly increased

NC1=NCCN1CC(=O)O [cyclocreatine, 1-carboxymethyl-2-iminoimidazolidine]
phosphorylation by creatine kinase in the forward reaction (creatine kinase): phosphorylated efficiently | autophagy (LC3II/LC3I ratio) [3]: significantly limited | microglial mTOR signaling [3]: restored | accumulation in the brain ([4]; mouse brain in vivo): can accumulate and function as a phosphagen in the mouse brain | transport across membranes ([4]; mouse, in vivo): passively transported across membranes | autophagy [1]: prevent | cell death [1]: prevent | metabolic activity / metabolic capacity [1]: rescue | Spp1+ microglia (5XFAD mice): significantly more | ECAR (Trem2-deficient BMDMs): improved | autophagy (LC3 immunoblot) (Trem2−/− BMDMs [5]): less autophagy | mTOR signaling (Trem2−/− BMDMs [5]): increased mTOR signaling | engulfment of plaque particulates by microglia (Trem2−/− 5XFAD mice; 8 months of age): did not moderate | number of LC3 puncta/cell (Trem2−/− 5XFAD mice; [8]): significantly decreased | percentage of LC3+ microglia (Trem2−/− 5XFAD mice; [8]): significantly decreased | percentage of cleaved caspase-3+ microglia (Trem2−/− 5XFAD mice; [8]): significantly decreased | multivesicular/multilamellar structures in microglia (TEM) (Trem2−/− 5XFAD mice; Trem2−/− 5XFAD mice, cyclocreatine in drinking water from 10 weeks to 8 months, vs untreated): significantly fewer | clustering of microglia around plaques (Trem2−/− 5XFAD mice; [9]): significantly increased | number of microglia/high powered field (HPF) in plaque-bearing regions of the cortex (Trem2−/− 5XFAD mice; [9]): significantly increased | plaque-associated neurite dystrophy (Trem2−/− 5XFAD mice; [9]): significantly reduced | plaque accumulation (Trem2−/− 5XFAD mice; cortex and hippocampus, 8 months of age): did not moderate | density of plaques (methoxy-X04 staining intensity) (Trem2−/− 5XFAD mice; [10]): resembled that of plaques in 5XFAD mice | plaque shape complexity (Trem2−/− 5XFAD mice; [10]): not significantly altered | Spp1+ microglia (Trem2−/− 5XFAD mice; cyclocreatine-treated Trem2−/− 5XFAD mice vs untreated Trem2−/− 5XFAD mice): significantly more | viability (Trem2−/− BMDM): increased

phosphocreatine
autophagy [1]: prevent | cell death [1]: prevent | metabolic activity / metabolic capacity [1]: rescue

phosphocyclocreatine [cyclocreatine phosphate]
stability of the phosphorous-nitrogen (P N) bond [6]: more stable than that of phosphocreatine

tunicamycin
Akt S473 phosphorylation (Trem2−/− BMDMs [7]): less | LC3II/LC3I ratios (Trem2−/− BMDMs [7]): greater
